Results published in article PMC4392609, “Interactions of antiretroviral drugs with the SLC22A1 (OCT1) drug transporter” (Frontiers in Pharmacology, 2015).
pIC50: −log10 of the molar value. Where “and” joins values, the source holds several entries; their conditions need not be identical. Equal entries are not always repeated. Where two headings read alike, the source gives them in different places.

Legend:
[1] = target: T1, SLC22A1 (Homo sapiens, UniProt O15245); set-up: expressed in transfected cells; method as in Jung et al., 2008; details: 1-methyl-4-phenylpyridinium as substrate, HEK-293 cells, 1 min incubation; efavirenz assessed only at 5 μM; ref Jung et al., 2008; cited from earlier work
T1 sequence (O15245 1-554): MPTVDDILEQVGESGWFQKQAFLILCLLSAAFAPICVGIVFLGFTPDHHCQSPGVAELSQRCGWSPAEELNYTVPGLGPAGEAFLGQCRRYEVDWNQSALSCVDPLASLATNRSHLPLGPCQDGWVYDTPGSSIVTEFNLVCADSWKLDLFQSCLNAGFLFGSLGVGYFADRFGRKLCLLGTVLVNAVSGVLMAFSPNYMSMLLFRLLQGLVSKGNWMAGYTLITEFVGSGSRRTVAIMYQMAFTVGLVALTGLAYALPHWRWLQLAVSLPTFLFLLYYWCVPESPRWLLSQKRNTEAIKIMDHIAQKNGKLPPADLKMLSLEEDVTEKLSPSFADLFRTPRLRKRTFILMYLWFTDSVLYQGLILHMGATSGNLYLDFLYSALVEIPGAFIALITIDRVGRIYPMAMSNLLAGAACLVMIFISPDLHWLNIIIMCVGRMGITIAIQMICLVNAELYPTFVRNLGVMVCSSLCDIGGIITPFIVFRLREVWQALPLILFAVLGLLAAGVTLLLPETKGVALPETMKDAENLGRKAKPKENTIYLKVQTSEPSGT

[2] = target: T1, SLC22A1; details: 30 min
Text: Using intracellular radioactivity readings, the amount of drug in mock transfected cells was compared to SLC22A1-overexpressing KCL22 cells (% ± SD).

[3] = target: T1, SLC22A1; experiment: Tetraethylammonium accumulation in SLC22A1-overexpressing KCL22 cells co-incubated with 50 μM test drug; details: for Reduction in cellular accumulation (of tetraethylammonium): 50 μM drug, SLC22A1-overexpressing KCL22 cells
[4] = ref Villani et al., 1999; cited from earlier work
[5] = target: T1, SLC22A1; experiment: SLC22A1 IC50 determination (inhibition of tetraethylammonium accumulation over a concentration range); format: cell-based; set-up: expressed in transfected cells; details: for TEA accumulation when 100 μM inhibitor used (%compared to inhibitor-free control): tetraethylammonium 5.5 μM, 30 min
[6] = target: T1, SLC22A1; set-up: expressed in transfected cells; method as in Zhang et al., 2000; details: ref Zhang et al., 2000; cited from earlier work
[7] = SLC22A1-overexpressing KCL22 cells, 100 μM inhibitor

In the case of `COC(=O)N[C@H](C(=O)N[C@@H](Cc1ccccc1)[C@@H](O)CN(Cc1ccc(-c2ccccn2)cc1)NC(=O)[C@@H](NC(=O)OC)C(C)(C)C)C(C)(C)C` [atazanavir], the “SLC22A1 inhibition in vitro” value [1] is listed as “no SLC22A1-inhibiting capability”.
In the case of `O=C1Nc2ccc(Cl)cc2[C@@](C#CC2CC2)(C(F)(F)F)O1` [efavirenz], the “SLC22A1 inhibition in vitro” value [1] is listed as “did not show SLC22A1 inhibition”, the “Accumulation in SLC22A1-expressing cells compared to mock-transfected cells (% higher)” value ([2]; human, 20 μM) is listed as 17% and the “Amount of substrate in mock-transfected cells compared to SLC22A1-overexpressing cells (% less)” value ([2]; human, 20 μM) is listed as 17%. The “Reduction in cellular accumulation (of tetraethylammonium)” value (“Reduction in cellular accumulation” for short) [3] was 50.0%, the “Maximum plasma concentration of efavirenz” value [4] was 12.7 µM and the “TEA accumulation when 100 μM inhibitor used (%compared to inhibitor-free control)” value [5, 7] was 39.7%. The pIC50 ([5]; read-out: Absolute IC50) was 4.66 and the pIC50 ([5]; read-out: Relative IC50) was 5.13.
For `Cc1cc(C#N)cc(C)c1Oc1nc(Nc2ccc(C#N)cc2)nc(N)c1Br` [etravirine], the “Reduction in cellular accumulation” value [3] was 22.5%.
In the case of `CC(C)(C)NC(=O)[C@@H]1CN(Cc2cccnc2)CCN1C[C@@H](O)C[C@@H](Cc1ccccc1)C(=O)N[C@H]1c2ccccc2C[C@H]1O` [indinavir], the “Effect on tetraethylammonium accumulation in SLC22A1-overexpressing Hela cells” value (from here on “Effect”) [6] is listed as “able to reduce tetraethylammonium accumulation”.
In the case of `Nc1ccn([C@@H]2CS[C@H](CO)O2)c(=O)n1` [lamivudine], the “SLC22A1 inhibition in vitro” value [1] is given as “significant inhibition”.
For `Cc1c(O)cccc1C(=O)N[C@@H](CSc1ccccc1)[C@H](O)CN1C[C@H]2CCCC[C@H]2C[C@H]1C(=O)NC(C)(C)C` [nelfinavir], the “SLC22A1 inhibition in vitro” value [1] is listed as “inhibited” and the “Effect” value [6] is listed as “able to reduce tetraethylammonium accumulation”.
For `Cc1ccnc2c1NC(=O)c1cccnc1N2C1CC1` [nevirapine], the “Reduction in cellular accumulation” value [3] was 24.5%.
In the case of `COc1cc2nc(N3CCN(C(=O)c4ccco4)CC3)nc(N)c2cc1OC` [prazosin], the “Reduction in cellular tetraethylammonium accumulation” value ([5]; 100 μM inhibitor, SLC22A1-overexpressing KCL22 cells) was 84%, the “TEA accumulation when 100 μM inhibitor used (%compared to inhibitor-free control)” value [5, 7] was 16.1% and the pIC50 ([5]; read-out: Absolute IC50) was 5.55. For the same molecule, the pIC50 ([5]; read-out: Relative IC50) was 5.64.
With `Cc1nnc(C(=O)NC(C)(C)c2nc(C(=O)NCc3ccc(F)cc3)c(O)c(=O)n2C)o1` [raltegravir] the “Tetraethylammonium concentration in cells after 30 min incubation” value [3] was 9.6 ± 1.4 µM.
In the case of `Cc1cc(/C=C/C#N)cc(C)c1Nc1ccnc(Nc2ccc(C#N)cc2)n1` [rilpivirine], the “Reduction in cellular accumulation” value [3] was 41.2%.
For `CC(C)c1nc(CN(C)C(=O)N[C@H](C(=O)N[C@@H](Cc2ccccc2)C[C@H](O)[C@H](Cc2ccccc2)NC(=O)OCc2cncs2)C(C)C)cs1` [ritonavir], the “SLC22A1 inhibition in vitro” value [1] is given as “inhibited” and the “Effect” value [6] is given as “able to reduce tetraethylammonium accumulation”.
In the case of `CC(C)(C)NC(=O)[C@@H]1C[C@@H]2CCCC[C@@H]2CN1C[C@@H](O)[C@H](Cc1ccccc1)NC(=O)[C@H](CC(N)=O)NC(=O)c1ccc2ccccc2n1` [saquinavir], the “Effect” value [6] is given as “able to reduce tetraethylammonium accumulation”.
In the case of `CC[N+](CC)(CC)CC` [tetraethylammonium], the “Amount of substrate in SLC22A1-overexpressing cells subjected to prazosin compared to SLC22A1-overexpressing cells (% less)” value ([2]; KCL22 cells, 100 μM prazosin, efavirenz 20 μM, darunavir 20 μM, tetraethylammonium 1 μM) was 76%, the “Amount of substrate in mock-transfected cells compared to SLC22A1-overexpressing cells (% less)” value ([2]; KCL22 cells, efavirenz 20 μM, darunavir 20 μM, tetraethylammonium 1 μM) was 92% and the “Tetraethylammonium cellular accumulation in mock transfected control KCL22 cells” value ([3]; tetraethylammonium 5.5 μM, 30 min, no inhibitor, mean ± SD, n = 3) was 0.3 ± 0.04 µM and 0.3 ± 0.004 µM. For the same molecule, the “Tetraethylammonium cellular accumulation in SLC22A1-overexpressing KCL22 cells” value ([3]; tetraethylammonium 5.5 μM, 30 min, no inhibitor, mean ± SD, n = 9) was 10.6 ± 0.8 µM.
With `Cc1cn([C@H]2C[C@H](N=[N+]=[N-])[C@@H](CO)O2)c(=O)[nH]c1=O` [zidovudine] the “Tetraethylammonium concentration in cells after 30 min incubation” value [3] was 8.5 ± 3.1 µM.
